The results in this text go back to patent publication US11040986B2, “Crystalline forms of cabotegravir sodium” (Sandoz AG, priority 2017, dated 2021).

Series [1] is described as follows: competitive slurry experiments with Form A and Form B in 2-butanone. It is filed as physicochemical. The settings on record: for Sample 1 after 1 day (solid form) / Sample 2 after 2 days (solid form) / Sample 3 after 6 days (solid form) / Result (solid form after slurrying): 2-butanone; for Result (solid form after slurrying): equal amounts of Form A and Form B. The procedure:
Competitive slurry experiments in 2-butanone were performed by suspending equal amounts of Form A (approximately 50 mg, prepared according to Reference Example 1 herein) and Form B (approximately 50 mg, prepared according to Example 1 herein) in 2-butanone (4 mL) and vigorously stirring the obtained suspension using a magnetic stirrer at 20° C.; 40° C., 60° C. and 80° C. respectively.

Series [2] in a line: equilibrium slurry experiments starting from cabotegravir sodium Form A (solvent-mediated phase transformation, PXRD). It is filed as physicochemical. Conditions: for Result (PXRD): 7 days. The procedure: […] After 7 days, the solids were collected by filtration dried under vacuum (30 mbar) at room temperature for 20 hours and analyzed by PXRD.
PXRD was performed with a PANalytical X'Pert PRO diffractometer equipped with a theta/theta coupled goniometer in transmission geometry, Cu-Kalpha1,2 radiation (wavelength 0.15419 nm) with a focusing mirror and a solid state PIXcel detector. Diffractograms were recorded at a tube voltage of 45 kV and a tube current of 40 mA, applying a stepsize of 0.013° 2-theta with 40 s per step (255 channels) in the angular range of 2° to 40° 2-theta at ambient conditions. A typical precision of the 2-theta values is in the range of ±0.2° 2-Theta, preferably of ±0.1° 2-Theta. Thus, the diffraction peak of cabotegravir sodium Form B that appears for example at 6.8° 2-Theta can appear in the range of from 6.6 to 7.0° 2-Theta, preferably in the range of from 6.7 to 6.9° 2-Theta on most X-ray diffractometers under standard conditions. […]
[…] The suspension was vigorously stirred at 60° C. using a magnetic stirrer. After 2 days, the solid was collected by filtration dried under vacuum (30 mbar) at room temperature for 20 hours and analyzed by PXRD, which confirmed the receipt of Form C.

As for `C[C@H]1CO[C@@H]2Cn3cc(C(=O)NCc4ccc(F)cc4F)c(=O)c([O-])c3C(=O)N12.[Na+]` [Form A + Form B, cabotegravir sodium], the “Sample 1 after 1 day (solid form)” value in series [1] (20° C.), in series [1] (40° C.), in series [1] (60° C.) and in series [1] (80° C.) was “Form B” in each case. Besides, the “Sample 2 after 2 days (solid form)” value in series [1] (20° C.), in series [1] (40° C.), in series [1] (60° C.) and in series [1] (80° C.) was “Form B” in each case. For the same molecule, the “Sample 3 after 6 days (solid form)” value in series [1] (20° C.), in series [1] (40° C.), in series [1] (60° C.) and in series [1] (80° C.) was “Form B” each time. Also, the “Result (solid form after slurrying)” value in series [1] (20° C.), in series [1] (40° C.), in series [1] (60° C.) and in series [1] (80° C.) was “Form B” throughout.

Take `C[C@H]1CO[C@@H]2Cn3cc(C(=O)NCc4ccc(F)cc4F)c(=O)c([O-])c3C(=O)N12.[Na+]` [Form A, cabotegravir sodium]: the “Result (PXRD)” value in series [2] (1,4-dioxane 5 mL, room temperature) is given as “Form B”; in series [2] (2-butanone 5 mL, room temperature) it was “Form B”; in series [2] (acetone 5 mL, room temperature) it was “Form B”; in series [2] (methyl acetate 5 mL, room temperature), “Form B”; in series [2] (tetrahydrofuran 5 mL, room temperature) it was “Form B”. Also, the “Result (solid form after slurrying)” value is on record as “Form B” in series [2] (1,4-dioxane, room temperature); “Form B” in series [2] (2-butanone, 20° C.); “Form B” in series [2] (2-butanone, 40° C.); “Form B” in series [2] (2-butanone, 60° C.); “Form B” in series [2] (2-butanone, 80° C.); “Form B” in series [2] (2-butanone, room temperature). Moreover, the “Result (solid form after slurrying)” value was “Form B” in series [2] (acetone, room temperature); “Form B” in series [2] (methyl acetate, room temperature); “Form C” in series [2] (methylisobutyl ketone, 60° C.); “Form C” in series [2] (methylisobutyl ketone, room temperature); “Form B” in series [2] (tetrahydrofuran, room temperature). Also, the “solid form by PXRD after slurrying” value in series [2] (methylisobutyl ketone 20 mL, 60° C., 2 days) is “Form C”.

`C[C@H]1CO[C@@H]2Cn3cc(C(=O)NCc4ccc(F)cc4F)c(=O)c([O-])c3C(=O)N12.[Na+]` [Form B, cabotegravir sodium]: the “thermodynamic stability relative to Form A” value is “thermodynamically more stable than Form A” in series [1] (competitive slurry in 2-butanone, 20 to 80° C.) and “thermodynamically more stable than prior art Form A” in series [2] (slurry experiments of Table 1, at least under the tested conditions).
